Data on 13 compounds can be found in ChEMBL document CHEMBL3352252, “Design, synthesis and molecular modeling of biquinoline-pyridine hybrids as a new class of potential EGFR and HER-2 kinase inhibitors” (Bioorg Med Chem Lett, 2014).

One experiment has as its system HepG2. Put plainly: Antiproliferative activity against human HepG2 cells after 48 hrs by MTT assay. Format: functional, cell-based. The conditions noted are these: HepG2, 48 h.
The subject of a further experiment is A549. Put plainly: Antiproliferative activity against human A549 cells after 48 hrs by MTT assay. Format: functional, cell-based. To be noted: A549, 48 h. In general terms: Tetrazolium assays rely on reduction of a dye to a coloured formazan, in cell work by metabolically active cells.
The target of experiment [1] is Receptor tyrosine-protein kinase erbB-2 (Homo sapiens, UniProt P04626). Put plainly: Inhibition of histidine-tagged recombinant HER2 (unknown origin) expressed in Sf9 cells assessed as reduction in enzyme autophosphorylation by DELFIA/time-resolved fluorometry.
Chain of Receptor tyrosine-protein kinase erbB-2 (P04626 whole entry, the tested form may be a part): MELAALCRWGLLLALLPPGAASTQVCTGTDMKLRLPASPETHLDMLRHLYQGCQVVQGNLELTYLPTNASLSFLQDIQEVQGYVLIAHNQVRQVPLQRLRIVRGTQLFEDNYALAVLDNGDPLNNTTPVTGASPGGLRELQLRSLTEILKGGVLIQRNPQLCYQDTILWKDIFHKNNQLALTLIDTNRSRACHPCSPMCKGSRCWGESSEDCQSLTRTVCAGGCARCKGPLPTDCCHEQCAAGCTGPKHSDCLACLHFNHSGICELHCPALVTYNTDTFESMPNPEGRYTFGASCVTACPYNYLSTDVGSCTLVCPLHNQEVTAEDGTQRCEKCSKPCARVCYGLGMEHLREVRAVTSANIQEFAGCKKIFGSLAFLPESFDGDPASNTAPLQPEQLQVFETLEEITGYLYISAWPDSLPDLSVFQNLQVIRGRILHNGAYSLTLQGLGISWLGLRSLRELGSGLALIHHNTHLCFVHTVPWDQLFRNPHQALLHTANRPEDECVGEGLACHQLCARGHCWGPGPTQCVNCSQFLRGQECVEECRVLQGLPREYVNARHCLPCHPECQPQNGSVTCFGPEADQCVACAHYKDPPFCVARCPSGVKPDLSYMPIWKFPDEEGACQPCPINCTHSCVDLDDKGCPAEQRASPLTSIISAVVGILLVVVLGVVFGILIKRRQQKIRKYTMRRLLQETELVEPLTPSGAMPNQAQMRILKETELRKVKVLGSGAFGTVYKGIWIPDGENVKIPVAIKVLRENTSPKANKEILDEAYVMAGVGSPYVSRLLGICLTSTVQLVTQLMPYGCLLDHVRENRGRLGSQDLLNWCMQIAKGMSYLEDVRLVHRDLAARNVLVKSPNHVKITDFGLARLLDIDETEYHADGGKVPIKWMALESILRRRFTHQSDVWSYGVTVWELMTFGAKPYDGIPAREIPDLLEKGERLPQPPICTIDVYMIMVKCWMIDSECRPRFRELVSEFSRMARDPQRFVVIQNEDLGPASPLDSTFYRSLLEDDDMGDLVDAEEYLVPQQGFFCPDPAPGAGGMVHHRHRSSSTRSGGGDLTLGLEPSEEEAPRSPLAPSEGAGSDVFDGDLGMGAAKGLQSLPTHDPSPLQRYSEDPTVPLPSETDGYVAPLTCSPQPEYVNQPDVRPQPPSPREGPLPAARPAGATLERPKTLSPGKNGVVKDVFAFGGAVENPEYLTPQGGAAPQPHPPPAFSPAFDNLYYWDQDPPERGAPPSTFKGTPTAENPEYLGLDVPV
The target of experiment [2] is Epidermal growth factor receptor (Homo sapiens, UniProt P00533). Put plainly: Inhibition of histidine-tagged recombinant EGFR cytoplasmic domain (amino acids 645-1186) (unknown origin) expressed in Sf9 cells assessed as reduction in enzyme autophosphorylation by DELFIA/time-resolved fluorometry.
Chain of Epidermal growth factor receptor (P00533 whole entry, the tested form may be a part): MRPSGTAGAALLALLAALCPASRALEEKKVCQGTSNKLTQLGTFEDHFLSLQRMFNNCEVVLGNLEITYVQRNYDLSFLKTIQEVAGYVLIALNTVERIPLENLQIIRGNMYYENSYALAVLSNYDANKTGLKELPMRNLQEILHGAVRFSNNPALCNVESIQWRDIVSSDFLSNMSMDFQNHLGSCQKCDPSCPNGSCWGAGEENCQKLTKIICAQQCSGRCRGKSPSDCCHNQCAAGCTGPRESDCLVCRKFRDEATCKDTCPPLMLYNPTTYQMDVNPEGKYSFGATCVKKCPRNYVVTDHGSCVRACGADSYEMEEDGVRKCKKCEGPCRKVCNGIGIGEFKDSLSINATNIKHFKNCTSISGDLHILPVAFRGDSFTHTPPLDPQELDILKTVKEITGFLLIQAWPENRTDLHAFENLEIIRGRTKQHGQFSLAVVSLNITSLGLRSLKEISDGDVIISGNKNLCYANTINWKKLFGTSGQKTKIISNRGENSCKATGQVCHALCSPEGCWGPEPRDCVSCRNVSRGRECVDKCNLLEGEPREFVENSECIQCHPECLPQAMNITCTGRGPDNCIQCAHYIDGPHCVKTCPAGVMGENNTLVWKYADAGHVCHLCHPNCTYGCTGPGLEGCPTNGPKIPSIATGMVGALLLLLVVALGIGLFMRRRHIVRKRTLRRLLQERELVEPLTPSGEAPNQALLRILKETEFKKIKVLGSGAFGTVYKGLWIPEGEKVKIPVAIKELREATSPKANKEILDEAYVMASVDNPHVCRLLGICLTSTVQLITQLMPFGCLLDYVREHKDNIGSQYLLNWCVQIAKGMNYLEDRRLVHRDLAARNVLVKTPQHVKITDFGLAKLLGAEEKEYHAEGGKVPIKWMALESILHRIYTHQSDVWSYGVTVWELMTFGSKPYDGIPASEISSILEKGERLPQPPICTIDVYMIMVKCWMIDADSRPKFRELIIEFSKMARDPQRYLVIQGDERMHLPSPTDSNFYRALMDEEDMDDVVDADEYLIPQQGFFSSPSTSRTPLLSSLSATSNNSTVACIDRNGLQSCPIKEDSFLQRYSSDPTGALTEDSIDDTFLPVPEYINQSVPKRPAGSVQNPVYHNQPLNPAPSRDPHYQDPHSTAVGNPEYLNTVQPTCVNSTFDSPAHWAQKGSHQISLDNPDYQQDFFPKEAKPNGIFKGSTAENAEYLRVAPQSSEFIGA

As usually defined, the IC50 is the concentration needed to halve the response being measured. As to `COc1ccc2c(c1)cc(C1C(C#N)=C(N)N(c3cccnc3)C3=C1C(=O)CCC3)c1nnnn12` (stereo not drawn), the IC50 in the experiment on HepG2 was determined as 21.2 µM; in the experiment with A549 it was 23.1 µM; in experiment [1], 8.9 µM; in experiment [2], 5.4 µM.
As to `COC(=O)C1=C(N)N(c2cccnc2)C2=C(C(=O)CCC2)C1c1cc2cc(Cl)ccc2n2nnnc12` (stereo not drawn), the IC50 came out at 1.3 µM in the experiment on HepG2, 0.1 µM in the experiment with A549, 9 µM in experiment [1] and 8.1 µM in experiment [2].
As to `N#CC1=C(N)N(c2cccnc2)C2=C(C(=O)CCC2)C1c1cc2cc(Cl)ccc2n2nnnc12` (stereo not drawn), the results for the IC50 in the experiment with HepG2 and in the experiment on A549 were 5.9 µM and 7.8 µM, respectively.
On to `COC(=O)C1=C(N)N(c2cccnc2)C2=C(C(=O)CCC2)C1c1cc2cc(C)ccc2n2nnnc12` (stereo not drawn), for which the IC50 in the experiment on HepG2 was found to be 1.9 µM; in the experiment on A549, 5.4 µM; in experiment [1] it was 5.2 µM; in experiment [2], 4.3 µM.
On to `CCOC(=O)C1=C(N)N(c2cccnc2)C2=C(C(=O)CCC2)C1c1cc2cc(Cl)ccc2n2nnnc12` (stereo not drawn), for which the IC50 in the experiment with HepG2 was found to be 5.5 µM; in the experiment with A549, 1.3 µM; in experiment [1] it was 22.7 µM; in experiment [2] it was 16.7 µM.
`COC(=O)C1=C(N)N(c2cccnc2)C2=C(C(=O)CCC2)C1c1cc2cc(OC)ccc2n2nnnc12` (stereo not drawn): the IC50 came to 6 µM in the experiment on HepG2, 6.4 µM in the experiment with A549, 2.1 µM in experiment [1] and 1.3 µM in experiment [2].
`C#Cc1cccc(Nc2ncnc3cc(OCCOC)c(OCCOC)cc23)c1` [ERLOTINIB]: the IC50 with HepG2 and with A549 was 0.1 µM each time.
For `N#CC1=C(N)N(c2cccnc2)C2=C(C(=O)CCC2)C1c1cc2ccccc2n2nnnc12` (stereo not drawn), the IC50 in the experiment on HepG2 came out at 11 µM; in the experiment on A549, 13 µM; in experiment [1], 5.2 µM; in experiment [2], 4.8 µM.
On the same counts, the results for `CCOC(=O)C1=C(N)N(c2cccnc2)C2=C(C(=O)CCC2)C1c1cc2ccccc2n2nnnc12` (stereo not drawn) are 0.1 µM, 0.4 µM, 0.2 µM and 0.09 µM.
Regarding `COC(=O)C1=C(N)N(c2cccnc2)C2=C(C(=O)CCC2)C1c1cc2ccccc2n2nnnc12` (stereo not drawn), the IC50 in the experiment on HepG2 was 1.5 µM; in the experiment with A549, 1.1 µM; in experiment [1], 1.9 µM; in experiment [2], 1.1 µM.
In the case of `Cc1ccc2c(c1)cc(C1C(C#N)=C(N)N(c3cccnc3)C3=C1C(=O)CCC3)c1nnnn12` (stereo not drawn), the IC50 in the experiment with HepG2 is 16.1 µM; with A549, 18.1 µM; in experiment [1], 14.8 µM; in experiment [2], 10.4 µM.
The corresponding values for `CCOC(=O)C1=C(N)N(c2cccnc2)C2=C(C(=O)CCC2)C1c1cc2cc(C)ccc2n2nnnc12` (stereo not drawn) are 7.1 µM, 8.5 µM, 4.1 µM and 7 µM.
`CCOC(=O)C1=C(N)N(c2cccnc2)C2=C(C(=O)CCC2)C1c1cc2cc(OC)ccc2n2nnnc12` (stereo not drawn): the IC50 is 18.3 µM in the experiment with HepG2, 15.4 µM in the experiment on A549, 0.8 µM in experiment [1] and 0.2 µM in experiment [2].
